Laboratory results: patent US20230091047A1 (priority 2019, published 2023)
Read-outs that look alike come from different tables or passages of the source.

How the values were obtained:
[1] = test system: HBV (HepG2.117 cell line, inducibly HBV producing); experiment: Anti-HBV activity: intracellular HBV DNA by real-time PCR in HepG2.117 cells after 3 days of treatment; assay type: cell-based, hepatitis B virus; conditions: read-out: EC50 (μM, mean value)
Method in brief: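 Read-out is intracellular HBV DNA, measured by real-time PCR using HBV-specific primers and probe. Cells were stable, inducible HBV-producing HepG2.117 (Tet-off). Serially diluted compound was applied for 3 days after replication was induced.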

in vitro = assay type: cell-based; conditions: HepG2 or HepG2.117 cells, ATPlite, mean value
Method in brief: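 Luminescent ATP quantitation served as the viability endpoint following a 3- or 4-day incubation with test compounds.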

[2] = Hepatitis B virus, HepG2.117, 72 h, HepG2.117 cells, 3 days of treatment, intracellular HBV DNA by real-time PCR, mean value
[3] = human, 3-days incubation (unmarked values)
[4] = Hepatitis B virus, HepG2.117, 72 h, HepG2.117 cells, intracellular HBV DNA by real-time PCR, 3 days of treatment, mean value
[5] = human, 3-days incubation (not marked with *)
[6] = Hepatitis B virus, HepG2.117, 72 h

Structure (SMILES) | EC50 [1, 2] [µM] | CC50 at 3 days (in vitro; [3]) [µM] | EC50 [1, 4] [µM] | CC50 at 3 days (in vitro; [5]) [µM] | other results
CC(C)Nc1nc2c(c(=O)n1-c1ccc(-c3nccn3C)cc1)CCN(C(=O)c1ccc(Cl)c(Cl)c1)C2 [Compound C174, 7-(3,4-dichlorobenzoyl)-3-[4-(1-methyl-1H-imidazol-2-yl)phenyl]-2-[(propan-2-yl)amino]-5,6,7,8-tetrahydropyrido[3,4-d]pyrimidin-4(3H)-one] | 0.42 | 6.8 | – | – | –
CC(C)Nc1nc2c(c(=O)n1-c1ccc(S(=O)(=O)Nc3ccccn3)cc1)C[C@@H](C)N(C(=O)c1ccc(Cl)c(Cl)c1)C2 [Compound C400] | – | – | 1.15 | > 50 | –
COc1ccccc1-n1c(NC(C)(C)C)nc2c(c1=O)CCN(C(=O)c1ccc(Cl)c(Cl)c1)C2 [Compound C53, 2-(tert-butylamino)-7-(3,4-dichlorobenzoyl)-3-(2-methoxyphenyl)-5,6,7,8-tetrahydropyrido[3,4-d]pyrimidin-4(3H)-one] | 2.05 | 31.6 | – | – | –
CNC(=O)c1csc(-n2c(NC(C)C)nc3c(c2=O)C[C@@H](C)N(C(=O)c2ccc(Cl)c(Cl)c2)C3)n1 [Compound C379] | – | – | 0.22 | 22.1 | –
CC(C)Nc1nc2c(c(=O)n1-c1ccc(S(C)(=O)=O)cc1)CCN(C(=O)c1ccc3nccn3c1)C2 [Compound C359] | > 50 | > 50 | – | – | –
Cc1noc2cc(-n3c(NC(C)C)nc4c(c3=O)C[C@@H](C)N(C(=O)c3ccc(Cl)c(Cl)c3)C4)ccc12 [Compound C395] | – | – | 0.15 | > 50 | –
CNC(=O)c1ccc(-n2c(N[C@H](C)c3ccc(F)c(F)c3)nc3c(c2=O)C[C@@H](C)N(C(=O)c2ccc(Cl)c(Cl)c2)C3)cc1 (single isomer, unassigned) [Compound C417a] | – | – | 1.22 | 41.8 | –
CNC(=O)c1ccc(-n2c(N[C@@H](C)C3CC3)nc3c(c2=O)C[C@@H](C)N(C(=O)c2ccc(Cl)c(Cl)c2)C3)c(Cl)c1 (single isomer, unassigned) [Compound C387a] | – | – | 0.05 | > 50 | –
CNC(=O)c1cc(-n2c(NC(C)C)nc3c(c2=O)C[C@@H](C)N(C(=O)c2ccc(Cl)c(Cl)c2)C3)[nH]n1 [Compound C355, 5-[(6R)-7-(3,4-dichlorobenzoyl)-6-methyl-4-oxo-2-[(propan-2-yl)amino]-5,6,7,8-tetrahydropyrido[3,4-d]pyrimidin-3(4H)-yl]-N-methyl-1H-pyrazole-3-carboxamide] | 0.09 | 34.2 | – | – | –
CNC(=O)c1ccc(-n2c(NC(C)C)nc3c(c2=O)C[C@@H](C)N(C(=O)c2ccc(Br)cc2F)C3)cc1 [Compound C511] | – | – | 2.41 | > 50 | –
CNC(=O)c1ccc(-n2c(N[C@H]3C[C@@H]3c3ccc(OC)cc3)nc3c(c2=O)C[C@@H](C)N(C(=O)c2ccc(Cl)c(Cl)c2)C3)cc1 [Compound C452] | – | – | – | > 50 | EC50 ([1]; HepG2.117 cells, intracellular HBV DNA by real-time PCR, 3 days of treatment, mean value): 2.91 µM
COc1ccccc1-n1c(NC(C)C2CC2)nc2c(c1=O)CCN(C(=O)c1ccc(Cl)c(Cl)c1)C2 (centres unmarked) [Compound C47, 2-[(1-cyclopropylethyl)amino]-7-(3,4-dichlorobenzoyl)-3-(2-methoxyphenyl)-5,6,7,8-tetrahydropyrido[3,4-d]pyrimidin-4(3H)-one] | 2.68 | 27.3 | – | – | –
CNC(=O)c1ccc(-n2c(NCc3c[nH]c4ccccc34)nc3c(c2=O)C[C@@H](C)N(C(=O)c2ccc(Cl)c(Cl)c2)C3)cc1 [Compound C277, 4-[(6R)-7-(3,4-dichlorobenzoyl)-2-{[(1H-indol-3-yl)methyl]amino}-6-methyl-4-oxo-5,6,7,8-tetrahydropyrido[3,4-d]pyrimidin-3(4H)-yl]-N-methylbenzamide] | 1.27 | 40.1 | – | – | –
Cc1c[nH]c(-c2ccc(-n3c(NC(C)C)nc4c(c3=O)C[C@@H](C)N(C(=O)c3ccc(Cl)c(Cl)c3)C4)cc2)n1 [Compound C250, (6R)-7-(3,4-dichlorobenzoyl)-6-methyl-3-[4-(4-methyl-1H-imidazol-2-yl)phenyl]-2-[(propan-2-yl)amino]-5,6,7,8-tetrahydropyrido[3,4-d]pyrimidin-4(3H)-one] | 0.07 | 8.9 | – | – | –
COc1ccccc1-n1c(NCCc2ccccc2)nc2c(c1=O)CCN(C(=O)c1ccc(Cl)c(Cl)c1)C2 [Compound C20, 7-(3,4-dichlorobenzoyl)-3-(2-methoxyphenyl)-2-[(2-phenylethyl)amino]-5,6,7,8-tetrahydropyrido[3,4-d]pyrimidin-4(3H)-one] | 8.92 | – | – | – | CC50 at 4 days (in vitro; human, 4-days incubation (values marked with *)): 23.1 µM
CNC(=O)c1ccc(-n2c(N(C)Cc3cccc(OC)c3)nc3c(c2=O)C[C@@H](C)N(C(=O)c2ccc(Cl)c(Cl)c2)C3)cc1 [Compound C457] | – | – | 0.1 | 38.1 | –

Structure (SMILES) | EC50 [1, 2] [µM] | CC50 at 3 days (in vitro; [3]) [µM] | EC50 [1, 4] [µM] | CC50 at 3 days (in vitro; [5]) [µM] | other results
COc1ccccc1-n1c(NCc2ccc(F)cc2F)nc2c(c1=O)CCN(C(=O)c1ccc(Cl)c(Cl)c1)C2 [Compound C29, 7-(3,4-dichlorobenzoyl)-2-{[(2,4-difluorophenyl)methyl]amino}-3-(2-methoxyphenyl)-5,6,7,8-tetrahydropyrido[3,4-d]pyrimidin-4(3H)-one] | 7.43 | 23.3 | – | – | –
CNC(=O)c1ccc(-n2c(N[C@H](C)c3cccnc3OC)nc3c(c2=O)C[C@@H](C)N(C(=O)c2ccc(Cl)c(Cl)c2)C3)cc1 (single isomer, unassigned) [Compound C285, 4-[(6R)-7-(3,4-dichlorobenzoyl)-2-{[(1*R)-1-(2-methoxypyridin-3-yl)ethyl]amino}-6-methyl-4-oxo-5,6,7,8-tetrahydropyrido[3,4-d]pyrimidin-3(4H)-yl]-N-methylbenzamide] | 0.37 | 27.6 | – | – | –
CNC(=O)c1ccc(-n2c(NC(C)C)nc3c(c2=O)C[C@@H](C)N(C(=O)c2cc(C)c(C)c(Br)c2)C3)cc1 [Compound C578] | – | – | 0.11 | 33.2 | –
Cc1coc2ccc(C(=O)N3CCc4c(nc(NC(C)C)n(-c5ccc(S(C)(=O)=O)cc5)c4=O)C3)cc12 [Compound C224, 3-[4-(methanesulfonyl)phenyl]-7-(3-methyl-1-benzofuran-5-carbonyl)-2-[(propan-2-yl)amino]-5,6,7,8-tetrahydropyrido[3,4-d]pyrimidin-4(3H)-one] | 6.71 | > 50 | – | – | –
CNC(=O)c1ccc(-n2c(NC(C)C)nc3c(c2=O)C[C@@H](C)N(C(=O)c2ccc(Cl)c(Cl)c2)C3)cn1 [Compound C344] | – | – | – | – | EC50 [1, 6]: 0.15 µM; CC50 at 3 days (in vitro; 3-days incubation (unmarked values)): > 50 µM
CNC(=O)[C@H]1CC[C@H](n2c(N[C@@H](C)c3ccc(OC(F)(F)F)cc3)nc3c(c2=O)C[C@@H](C)N(C(=O)c2ccc(Cl)c(Cl)c2)C3)CC1 [Compound C632] | – | – | 0.12 | 6.2 | –
CNC(=O)c1ccc(-n2c(N3CCCOC(C)C3)nc3c(c2=O)C[C@@H](C)N(C(=O)c2ccc(Cl)c(Cl)c2)C3)cc1 (some centres unmarked) [Compound C558] | – | – | 0.46 | > 50 | –
C[C@@H]1Cc2c(nc(NC(C)(C)c3cnn(C)c3)n(-c3ccc(S(C)(=O)=O)cc3)c2=O)CN1C(=O)c1ccc(Cl)c(Cl)c1 [Compound C207, (6R)-7-(3,4-dichlorobenzoyl)-3-[4-(methanesulfonyl)phenyl]-6-methyl-2-{[2-(1-methyl-1H-pyrazol-4-yl)propan-2-yl]amino}-5,6,7,8-tetrahydropyrido[3,4-d]pyrimidin-4(3H)-one] | 0.59 | > 50 | – | – | –
CC(C)Nc1nc2c(c(=O)n1-c1ccc(S(C)(=O)=O)cc1)CCN(C(=O)c1ccc(Cl)c(C3CC3)c1)C2 [Compound C225, 7-(4-chloro-3-cyclopropylbenzoyl)-3-[4-(methanesulfonyl)phenyl]-2-[(propan-2-yl)amino]-5,6,7,8-tetrahydropyrido[3,4-d]pyrimidin-4(3H)-one] | 3.46 | > 50 | – | – | –
COc1ccc(CNc2nc3c(c(=O)n2-c2ccc(S(C)(=O)=O)cc2)CC(c2ccc(F)cc2)N(C(=O)c2ccc(Cl)c(Cl)c2)C3)cc1 (centres unmarked) [Compound C109, 7-(3,4-dichlorobenzoyl)-6-(4-fluorophenyl)-3-[4-(methanesulfonyl)phenyl]-2-{[(4-methoxyphenyl)methyl]amino}-5,6,7,8-tetrahydropyrido[3,4-d]pyrimidin-4(3H)-one] | – | > 50 | – | – | EC50 [1, 6]: 2.11 µM
CNC(=O)c1ccc(-n2c(N[C@H](C)c3ccc4[nH]cnc4c3)nc3c(c2=O)C[C@@H](C)N(C(=O)c2ccc(Cl)c(Cl)c2)C3)cc1 (single isomer, unassigned) [Compound C647a] | – | – | > 2.5 | > 50 | –
CNC(=O)c1ccc(-n2c(N[C@@H](C)c3ccc(F)cc3)nc3c(c2=O)C[C@@H](C)N(C(=O)c2ccc(Cl)c(Cl)c2)C3)cc1 [Compound C380] | – | – | 0.1 | 15.7 | –
CC(C)Nc1nc2c(c(=O)n1-c1ccc(S(=O)(=O)NC(C)C)cc1)C[C@@H](C)N(C(=O)c1ccc(Cl)c(Cl)c1)C2 [Compound C388] | – | – | 0.62 | > 50 | –
CNC(=O)c1ccc([C@H](C)Nc2nc3c(c(=O)n2-c2ccc(NC(C)=O)cc2)C[C@@H](C)N(C(=O)c2ccc(Cl)c(Cl)c2)C3)cc1 (single isomer, unassigned) [Compound C528b] | – | – | > 10 | > 50 | –
COC(=O)c1ccc(-n2c(NC(C)CCCCO)nc3c(c2=O)C[C@@H](C)N(C(=O)c2ccc(Cl)c(Cl)c2)C3)cc1OC (some centres unmarked) [Compound C670] | – | – | 0.37 | > 50 | –
